# Measured values taken from ChEMBL document CHEMBL1140165, “Rotationally constrained 2,4-diamino-5,6-disubstituted pyrimidines: a new class of histamine H4 receptor antagonists with improved druglikeness and in vivo efficacy in pain and inflammation models” (J Med Chem, 2008).
# Active and inactive are the calls of the source. The rule behind the calls is not given here.
# What was measured:
# Rattus norvegicus [1] = test: Antinociceptive efficacy in ip dosed rat assessed as inhibition of carrageenan-induced inflammatory pain in paw after 30 mins by hotbox assay relative to control; assay type: functional
# [2] = Selectivity ratio of Ki for human histamine H4 receptor to Ki for dopamine D2 receptor
# [3] = target: Mu-type opioid receptor (Homo sapiens) (UniProt P35372); test: Binding affinity to mu opioid receptor
# Mu-type opioid receptor (Homo sapiens), sequence (P35372 whole entry): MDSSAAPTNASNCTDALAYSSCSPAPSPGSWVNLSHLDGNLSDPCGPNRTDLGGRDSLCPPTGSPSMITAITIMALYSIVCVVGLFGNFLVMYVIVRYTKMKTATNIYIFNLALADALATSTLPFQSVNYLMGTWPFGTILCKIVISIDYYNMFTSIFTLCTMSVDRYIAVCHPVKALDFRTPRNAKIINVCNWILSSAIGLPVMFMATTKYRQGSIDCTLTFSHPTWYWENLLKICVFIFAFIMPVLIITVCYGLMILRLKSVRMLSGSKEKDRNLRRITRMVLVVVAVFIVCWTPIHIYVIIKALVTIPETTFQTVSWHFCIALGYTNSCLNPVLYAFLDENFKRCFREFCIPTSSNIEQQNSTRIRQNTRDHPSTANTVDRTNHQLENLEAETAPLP
# [4] = Ratio of drug level in brain to plasma in rat at 10 mg/kg, iv after 30 mins; assay type: ADME, organism-based; design: dose 10 mg/kg, route intravenous
# [5] = Selectivity ratio of Ki for human histamine H4 receptor to Ki for 5HT1A receptor
# Rattus norvegicus [6] = test: Antinociceptive efficacy in rat assessed as inhibition of carrageenan-induced inflammatory pain in paw at 100 umol/kg, ip after 30 mins by hotbox assay relative to control; assay type: functional
# Homo sapiens = species on record: Homo sapiens; test: Selectivity ratio of Ki for human histamine H4 receptor to Ki for human histamine H3 receptor
# [7] = target: T1, Prostaglandin G/H synthase 2 (Homo sapiens) (UniProt P35354); test: Binding affinity at COX2
# T1 sequence (whole entry): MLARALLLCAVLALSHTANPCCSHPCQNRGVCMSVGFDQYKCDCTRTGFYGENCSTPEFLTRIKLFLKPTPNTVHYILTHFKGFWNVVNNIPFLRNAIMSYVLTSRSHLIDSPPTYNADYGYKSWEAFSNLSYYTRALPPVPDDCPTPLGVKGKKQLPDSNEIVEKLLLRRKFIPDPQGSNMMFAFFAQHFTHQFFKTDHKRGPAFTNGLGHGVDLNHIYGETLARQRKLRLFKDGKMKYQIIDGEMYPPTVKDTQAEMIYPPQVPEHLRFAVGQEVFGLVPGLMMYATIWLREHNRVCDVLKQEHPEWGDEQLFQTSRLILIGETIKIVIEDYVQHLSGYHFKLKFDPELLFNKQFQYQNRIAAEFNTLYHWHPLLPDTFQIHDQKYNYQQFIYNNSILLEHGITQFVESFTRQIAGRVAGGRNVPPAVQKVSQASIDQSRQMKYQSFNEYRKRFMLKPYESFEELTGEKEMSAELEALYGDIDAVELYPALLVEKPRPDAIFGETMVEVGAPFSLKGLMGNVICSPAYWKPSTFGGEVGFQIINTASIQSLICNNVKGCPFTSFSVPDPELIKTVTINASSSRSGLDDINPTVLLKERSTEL
# [8] = Selectivity ratio of Ki for human histamine H4 receptor to Ki for adrenergic alpha1 receptor
# [9] = target: Cannabinoid receptor 2 (Homo sapiens) (UniProt P34972); test: Binding affinity to CB2 receptor
# Cannabinoid receptor 2 (Homo sapiens), sequence (P34972 whole entry): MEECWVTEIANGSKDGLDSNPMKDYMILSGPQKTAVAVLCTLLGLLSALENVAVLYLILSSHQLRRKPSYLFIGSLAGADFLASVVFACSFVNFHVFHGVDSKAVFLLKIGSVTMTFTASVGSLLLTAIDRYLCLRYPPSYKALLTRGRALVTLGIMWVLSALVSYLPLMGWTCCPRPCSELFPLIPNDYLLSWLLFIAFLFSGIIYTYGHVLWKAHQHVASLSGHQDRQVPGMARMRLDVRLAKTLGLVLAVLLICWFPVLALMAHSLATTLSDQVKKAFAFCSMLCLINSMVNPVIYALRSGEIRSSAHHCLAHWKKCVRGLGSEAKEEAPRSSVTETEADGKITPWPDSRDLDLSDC
# Liver microsomes [10] = test: Metabolic stability in rat liver microsomes; assay type: ADME, Microsome
# Mus musculus [11] = test: Inhibition of clobenpropit-induced itching in ip dosed CD1/ICR mouse assessed as blockade of scratching in hind paw for 25 mins pretreated 30 mins before clobenpropit challenge; assay type: functional
# [12] = target: Kappa-type opioid receptor (Homo sapiens) (UniProt P41145); test: Binding affinity to kappa opioid receptor
# Kappa-type opioid receptor (Homo sapiens), sequence (P41145 whole entry): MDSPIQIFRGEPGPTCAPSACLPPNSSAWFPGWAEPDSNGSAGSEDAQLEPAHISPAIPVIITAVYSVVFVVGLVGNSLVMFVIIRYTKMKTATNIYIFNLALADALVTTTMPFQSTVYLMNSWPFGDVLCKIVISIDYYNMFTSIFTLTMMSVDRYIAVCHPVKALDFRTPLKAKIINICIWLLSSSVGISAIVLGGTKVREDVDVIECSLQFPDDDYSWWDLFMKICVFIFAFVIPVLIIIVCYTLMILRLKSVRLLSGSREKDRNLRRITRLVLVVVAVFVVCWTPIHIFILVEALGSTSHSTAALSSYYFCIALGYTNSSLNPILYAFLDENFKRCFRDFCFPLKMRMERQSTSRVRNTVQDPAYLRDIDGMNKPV
# Histamine H4 receptor [13] = target: T2, Histamine H4 receptor (Rattus norvegicus, UniProt Q91ZY1); test: Antagonist activity at rat histamine H4 receptor expressed in HEK293 cells assessed as inhibition of histamine-induced intracellular calcium elevation by FLIPR assay; assay type: functional, cell-based
# T2 sequence (Q91ZY1 whole entry): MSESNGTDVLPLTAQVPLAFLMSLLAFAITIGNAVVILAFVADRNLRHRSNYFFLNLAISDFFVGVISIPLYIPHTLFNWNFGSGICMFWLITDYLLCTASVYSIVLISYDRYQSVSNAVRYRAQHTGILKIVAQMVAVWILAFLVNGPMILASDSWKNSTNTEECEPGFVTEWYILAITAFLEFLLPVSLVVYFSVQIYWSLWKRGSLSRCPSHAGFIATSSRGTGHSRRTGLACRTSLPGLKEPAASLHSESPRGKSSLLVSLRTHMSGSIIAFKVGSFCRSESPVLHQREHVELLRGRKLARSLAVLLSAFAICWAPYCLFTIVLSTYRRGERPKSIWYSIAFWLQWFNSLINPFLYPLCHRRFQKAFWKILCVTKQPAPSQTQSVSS
# Cytochrome P450 3A4 = Cytochrome P450 3A4 (Homo sapiens, UniProt P08684); test: Inhibition of CYP3A4 upto 10 uM; assay type: ADME
# Cytochrome P450 3A4, sequence (P08684 whole entry): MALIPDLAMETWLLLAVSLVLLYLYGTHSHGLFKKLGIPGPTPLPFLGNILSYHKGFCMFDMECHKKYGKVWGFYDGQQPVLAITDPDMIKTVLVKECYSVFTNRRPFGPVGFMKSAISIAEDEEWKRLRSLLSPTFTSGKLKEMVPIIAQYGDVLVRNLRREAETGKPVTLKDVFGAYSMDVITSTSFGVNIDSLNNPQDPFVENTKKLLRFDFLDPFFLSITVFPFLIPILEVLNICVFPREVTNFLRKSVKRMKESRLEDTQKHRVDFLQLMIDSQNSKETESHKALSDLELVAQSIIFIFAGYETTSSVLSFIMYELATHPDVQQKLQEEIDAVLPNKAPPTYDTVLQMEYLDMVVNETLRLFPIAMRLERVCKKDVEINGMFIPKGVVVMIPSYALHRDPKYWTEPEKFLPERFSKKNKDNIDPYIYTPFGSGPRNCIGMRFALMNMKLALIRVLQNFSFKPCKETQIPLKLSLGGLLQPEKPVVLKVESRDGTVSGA
# BMMC = test: Blockade of histamine-induced morphological changes in BALB/c mouse BMMC by flow cytometry; assay type: functional, cell-based
# [14] = target: Cannabinoid receptor 1 (Homo sapiens) (UniProt P21554); test: Binding affinity to CB1 receptor
# Cannabinoid receptor 1 (Homo sapiens), sequence (P21554 whole entry): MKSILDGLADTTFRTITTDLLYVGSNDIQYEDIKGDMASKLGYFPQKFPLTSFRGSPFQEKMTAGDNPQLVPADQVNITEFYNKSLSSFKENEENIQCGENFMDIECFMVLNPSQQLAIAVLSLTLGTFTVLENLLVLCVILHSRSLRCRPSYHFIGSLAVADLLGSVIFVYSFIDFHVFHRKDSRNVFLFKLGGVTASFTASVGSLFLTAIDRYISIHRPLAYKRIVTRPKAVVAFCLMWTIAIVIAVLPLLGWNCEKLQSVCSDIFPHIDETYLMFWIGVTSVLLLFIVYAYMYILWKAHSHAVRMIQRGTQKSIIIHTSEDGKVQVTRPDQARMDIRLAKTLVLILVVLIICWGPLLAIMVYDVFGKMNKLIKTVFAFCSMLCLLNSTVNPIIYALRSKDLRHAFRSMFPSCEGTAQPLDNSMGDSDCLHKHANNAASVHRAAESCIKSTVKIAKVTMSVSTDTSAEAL
# [15] = Protein binding in human; assay type: ADME, organism-based; details: in vivo, read-out: PB (converted)
# [16] = Selectivity ratio of Ki for human histamine H4 receptor to Ki for 5HT2A receptor
# Histamine H4 receptor [17] = target: T2, Histamine H4 receptor; test: Displacement of [3H]histamine from rat histamine H4 receptor expressed in HEK293 cells; assay type: cell-based
# Rattus norvegicus [18] = test: Antinociceptive efficacy in spinal nerve ligated Sprague-Dawley rat assessed as reduction of neuropathic pain in left side paw at 100 umol/kg, ip administered 30 mins before testing relative to control; assay type: functional
# Mus musculus [19] = test: Antiinflammatory activity against ip dosed BALB/c mouse assessed as inhibition of zymosan-induced peritonitis after 2 hrs pretreated 30 mins before zymosan challenge; assay type: functional
# Liver microsomes [20] = test: Metabolic stability in human liver microsomes; assay type: ADME, Microsome
# Cytochrome P450 2D6 = Cytochrome P450 2D6 (Homo sapiens, UniProt P10635); test: Inhibition of CYP2D6 upto 10 uM; assay type: ADME
# Cytochrome P450 2D6, sequence (P10635 whole entry): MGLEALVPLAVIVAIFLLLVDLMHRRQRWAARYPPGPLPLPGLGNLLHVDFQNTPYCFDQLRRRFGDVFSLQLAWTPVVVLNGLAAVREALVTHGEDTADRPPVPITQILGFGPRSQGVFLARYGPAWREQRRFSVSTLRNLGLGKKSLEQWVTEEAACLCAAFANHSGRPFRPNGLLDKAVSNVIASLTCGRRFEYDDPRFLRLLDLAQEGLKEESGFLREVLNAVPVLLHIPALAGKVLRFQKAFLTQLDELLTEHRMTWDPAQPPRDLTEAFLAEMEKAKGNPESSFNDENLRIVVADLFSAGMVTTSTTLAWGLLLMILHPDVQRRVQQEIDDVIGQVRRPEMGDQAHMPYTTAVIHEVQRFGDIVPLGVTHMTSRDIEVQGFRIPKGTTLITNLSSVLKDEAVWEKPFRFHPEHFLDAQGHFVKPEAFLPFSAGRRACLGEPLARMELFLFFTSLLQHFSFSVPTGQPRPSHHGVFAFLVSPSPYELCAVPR
# [21] = Metabolic stability in mouse liver microsomes; assay type: ADME, Microsome
# Histamine H4 receptor [22] = target: T3, Histamine H4 receptor (Homo sapiens, UniProt Q9H3N8); test: Displacement of [3H]histamine from human histamine H4 receptor expressed in HEK293 cells; assay type: cell-based; details: read-out: Ki
# T3 sequence (Q9H3N8 whole entry): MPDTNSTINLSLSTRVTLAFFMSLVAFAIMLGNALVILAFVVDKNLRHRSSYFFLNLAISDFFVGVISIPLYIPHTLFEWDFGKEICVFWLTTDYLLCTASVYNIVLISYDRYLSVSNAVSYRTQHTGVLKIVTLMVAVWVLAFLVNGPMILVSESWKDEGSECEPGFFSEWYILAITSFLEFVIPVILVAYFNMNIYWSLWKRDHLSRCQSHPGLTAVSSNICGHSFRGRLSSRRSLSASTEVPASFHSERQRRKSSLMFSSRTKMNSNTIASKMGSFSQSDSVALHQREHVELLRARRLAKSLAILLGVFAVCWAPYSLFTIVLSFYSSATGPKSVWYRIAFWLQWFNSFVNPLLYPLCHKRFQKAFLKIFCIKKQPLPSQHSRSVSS
# [23] = Selectivity ratio of Ki for human histamine H4 receptor to Ki for histamine H2 receptor
# Rattus norvegicus [24] = test: Antinociceptive efficacy in spinal nerve ligated Sprague-Dawley rat assessed as reduction of neuropathic pain in left side paw at 300 umol/kg, ip administered 30 mins before testing relative to control; assay type: functional
# Cytochrome P450 2C9 = Cytochrome P450 2C9 (Homo sapiens, UniProt P11712); test: Inhibition of CYP2C9 upto 10 uM; assay type: ADME
# Cytochrome P450 2C9, sequence (P11712 whole entry): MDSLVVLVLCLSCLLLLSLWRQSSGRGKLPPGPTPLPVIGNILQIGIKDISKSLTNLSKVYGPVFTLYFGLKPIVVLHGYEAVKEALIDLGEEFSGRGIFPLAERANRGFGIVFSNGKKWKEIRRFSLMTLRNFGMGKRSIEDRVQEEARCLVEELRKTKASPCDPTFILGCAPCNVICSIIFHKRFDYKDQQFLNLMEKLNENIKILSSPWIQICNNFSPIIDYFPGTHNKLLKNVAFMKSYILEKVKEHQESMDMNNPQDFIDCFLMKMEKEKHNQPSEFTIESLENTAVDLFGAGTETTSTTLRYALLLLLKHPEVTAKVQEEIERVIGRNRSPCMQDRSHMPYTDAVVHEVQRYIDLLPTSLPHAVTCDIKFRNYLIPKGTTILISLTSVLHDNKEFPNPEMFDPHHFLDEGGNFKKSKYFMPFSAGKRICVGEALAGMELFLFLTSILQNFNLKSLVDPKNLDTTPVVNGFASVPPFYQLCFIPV
# [25] = Selectivity ratio of Ki for human histamine H4 receptor to Ki for 5HT1D receptor
# [26] = Protein binding in rat; assay type: ADME, organism-based; details: in vivo, read-out: PB (converted)
# [27] = target: Delta-type opioid receptor (Homo sapiens) (UniProt P41143); test: Binding affinity to delta opioid receptor
# Delta-type opioid receptor (Homo sapiens), sequence (P41143 whole entry): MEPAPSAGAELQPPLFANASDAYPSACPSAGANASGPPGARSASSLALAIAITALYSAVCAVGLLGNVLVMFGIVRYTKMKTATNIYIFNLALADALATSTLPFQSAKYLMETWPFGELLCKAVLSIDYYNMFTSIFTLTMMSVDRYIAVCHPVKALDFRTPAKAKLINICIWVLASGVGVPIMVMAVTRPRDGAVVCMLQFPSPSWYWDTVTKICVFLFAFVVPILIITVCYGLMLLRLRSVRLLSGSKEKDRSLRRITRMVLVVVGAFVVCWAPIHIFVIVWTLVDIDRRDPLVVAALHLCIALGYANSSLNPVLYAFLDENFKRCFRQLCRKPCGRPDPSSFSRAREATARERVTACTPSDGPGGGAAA
# [28] = target: Prostaglandin G/H synthase 1 (Homo sapiens) (UniProt P23219); test: Binding affinity at COX1
# Prostaglandin G/H synthase 1 (Homo sapiens), sequence (P23219 whole entry): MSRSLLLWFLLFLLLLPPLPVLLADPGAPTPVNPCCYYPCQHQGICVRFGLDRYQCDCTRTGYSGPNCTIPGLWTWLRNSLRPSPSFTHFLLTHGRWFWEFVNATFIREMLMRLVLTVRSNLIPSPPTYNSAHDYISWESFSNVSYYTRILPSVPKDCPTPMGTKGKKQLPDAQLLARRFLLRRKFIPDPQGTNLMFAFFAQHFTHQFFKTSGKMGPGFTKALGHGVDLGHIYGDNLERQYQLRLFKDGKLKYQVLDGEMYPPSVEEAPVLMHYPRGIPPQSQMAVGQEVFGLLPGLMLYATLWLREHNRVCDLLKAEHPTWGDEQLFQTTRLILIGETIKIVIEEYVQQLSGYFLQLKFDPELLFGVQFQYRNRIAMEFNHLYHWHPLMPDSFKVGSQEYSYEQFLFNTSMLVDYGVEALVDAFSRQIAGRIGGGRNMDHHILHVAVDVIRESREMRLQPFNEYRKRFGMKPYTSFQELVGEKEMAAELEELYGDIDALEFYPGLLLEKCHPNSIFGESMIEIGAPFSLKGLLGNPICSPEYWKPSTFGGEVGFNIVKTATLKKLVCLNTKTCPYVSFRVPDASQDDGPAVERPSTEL
# Histamine H4 receptor [29] = target: T3, Histamine H4 receptor; details: HEK293
# Histamine H4 receptor [30] = target: T4, Histamine H4 receptor (Mus musculus, UniProt Q91ZY2); test: Antagonist activity at mouse histamine H4 receptor expressed in HEK293 cells assessed as inhibition of histamine-induced intracellular calcium elevation by FLIPR assay; assay type: functional, cell-based
# T4 sequence (Q91ZY2 whole entry): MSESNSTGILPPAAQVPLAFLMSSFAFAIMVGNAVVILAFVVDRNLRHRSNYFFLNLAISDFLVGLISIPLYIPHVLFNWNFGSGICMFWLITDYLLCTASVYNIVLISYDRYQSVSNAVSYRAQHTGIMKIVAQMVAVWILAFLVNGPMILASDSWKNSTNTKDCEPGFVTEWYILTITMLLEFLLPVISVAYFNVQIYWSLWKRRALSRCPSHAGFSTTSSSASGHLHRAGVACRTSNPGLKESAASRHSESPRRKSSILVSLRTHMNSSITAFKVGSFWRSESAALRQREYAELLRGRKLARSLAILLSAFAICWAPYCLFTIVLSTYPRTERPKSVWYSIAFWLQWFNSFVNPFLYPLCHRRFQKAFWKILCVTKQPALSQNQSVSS
# [31] = Selectivity ratio of Ki for human histamine H4 receptor to Ki for histamine H1 receptor
# Rattus norvegicus [32] = test: Antinociceptive efficacy in spinal nerve ligated Sprague-Dawley rat assessed as reduction of neuropathic pain in left side paw at 500 umol/kg, ip administered 30 mins before testing relative to control; assay type: functional
compound,measurement,setting,value
O=C(O)Cc1ccccc1Nc1c(Cl)cccc1Cl [DICLOFENAC],Efficacy,Rattus norvegicus [1],91%
CNC1CN(c2nc(N)nc3c2CCCc2ccccc2-3)C1,Ratio Ki,[2],123
same,Activity,[3],inactive
same,Kp at 0.5 h,[4],5.8
same,Ratio Ki,[5],940
same,Efficacy,Rattus norvegicus [6],39%
same,Ratio Ki,Homo sapiens,93
same,Activity,[7],inactive
same,Ratio Ki,[8],215
same,Activity,[9],inactive
same,Stability,Liver microsomes [10],165 pmol/min/mg
same,ED50,Mus musculus [11],25 µmol/kg
same,Activity,[12],inactive
same,EC50,Histamine H4 receptor [13],9.33 nM
same,Activity,Cytochrome P450 3A4,Not Active
same,Activity,BMMC,Active
same,Activity,[14],inactive
same,fraction unbound,[15],0.52
same,Ratio Ki,[16],235
same,Ki,Histamine H4 receptor [17],3.63 nM
same,Efficacy,Rattus norvegicus [18],36%
same,ED50,Mus musculus [19],17 µmol/kg
same,Stability,Liver microsomes [20],20 pmol/min/mg
same,Activity,Cytochrome P450 2D6,Not Active
same,Stability,[21],38.8 pmol/min/mg
same,Ki,Histamine H4 receptor [22],11 nM
same,Ratio Ki,[23],> 860
same,Efficacy,Rattus norvegicus [24],78%
same,Activity,Cytochrome P450 2C9,Not Active
same,Ratio Ki,[25],310
same,fraction unbound,[26],0.56
same,Activity,[27],inactive
same,Activity,[28],inactive
same,pKb,Histamine H4 receptor [29],8.05
same,EC50,Histamine H4 receptor [30],9.12 nM
same,Ratio Ki,[31],> 610
NCC1(CC(=O)O)CCCCC1 [GABAPENTIN],Efficacy,Rattus norvegicus [32],62%
